Data as given in patent publication US12180194B2, “Multi-aziridine compound” (Covestro (Netherlands) B.V., priority 2018, dated 2024).

Columns and labels:
[1] = tested on: Bscl2-GFP; test: ToxTracker genotoxicity assay, Bscl2-GFP reporter induction; details: for Genotoxicity test, With S9 rat liver extract, Bscl 2, 10 / Genotoxicity test, Without S9 rat liver extract, Bscl 2, 10: GFP induction vs vehicle at 10% cytotoxicity; for Genotoxicity test, With S9 rat liver extract, Bscl 2, 10 / Genotoxicity test, With S9 rat liver extract, Bscl 2, 25 / Genotoxicity test, With S9 rat liver extract, Bscl 2, 50: 3 h exposure with S9, 24 h recovery; for Genotoxicity test, Without S9 rat liver extract, Bscl 2, 10 / Genotoxicity test, Without S9 rat liver extract, Bscl 2, 25 / Genotoxicity test, Without S9 rat liver extract, Bscl 2, 50: 24 h exposure, no S9; for Genotoxicity test, With S9 rat liver extract, Bscl 2, 25 / Genotoxicity test, Without S9 rat liver extract, Bscl 2, 25: GFP induction vs vehicle at 25% cytotoxicity; for Genotoxicity test, With S9 rat liver extract, Bscl 2, 50 / Genotoxicity test, Without S9 rat liver extract, Bscl 2, 50: GFP induction vs vehicle at 50% cytotoxicity; for Genotoxicity test, Bscl 2 induction level: fold induction
[2] = tested on: Rtkn-GFP; test: ToxTracker genotoxicity assay, Rtkn-GFP reporter induction; details: for Genotoxicity test, With S9 rat liver extract, Rtkn, 10 / Genotoxicity test, Without S9 rat liver extract, Rtkn, 10: GFP induction vs vehicle at 10% cytotoxicity; for Genotoxicity test, With S9 rat liver extract, Rtkn, 10 / Genotoxicity test, With S9 rat liver extract, Rtkn, 25 / Genotoxicity test, With S9 rat liver extract, Rtkn, 50: 3 h exposure with S9, 24 h recovery; for Genotoxicity test, Without S9 rat liver extract, Rtkn, 10 / Genotoxicity test, Without S9 rat liver extract, Rtkn, 25 / Genotoxicity test, Without S9 rat liver extract, Rtkn, 50: 24 h exposure, no S9; for Genotoxicity test, With S9 rat liver extract, Rtkn, 25 / Genotoxicity test, Without S9 rat liver extract, Rtkn, 25: GFP induction vs vehicle at 25% cytotoxicity; for Genotoxicity test, With S9 rat liver extract, Rtkn, 50 / Genotoxicity test, Without S9 rat liver extract, Rtkn, 50: GFP induction vs vehicle at 50% cytotoxicity; for Genotoxicity test, Rtkn induction level: fold induction
[3] = with S9 rat liver extract, concentration 10 (10% cytotoxicity)
[4] = with S9 rat liver extract, concentration 25 (25% cytotoxicity)
[5] = with S9 rat liver extract, concentration 50 (50% cytotoxicity)
[6] = without S9 rat liver extract, concentration 10 (10% cytotoxicity)
[7] = without S9 rat liver extract, concentration 25 (25% cytotoxicity)

SMILES	Genotoxicity test, With S9 rat liver extract, Bscl 2, 10 [1]	Genotoxicity test, Without S9 rat liver extract, Bscl 2, 10 [1]	Genotoxicity test, With S9 rat liver extract, Bscl 2, 25 [1]	Genotoxicity test, Without S9 rat liver extract, Bscl 2, 25 [1]	Genotoxicity test, With S9 rat liver extract, Rtkn, 10 [2]	Genotoxicity test, Without S9 rat liver extract, Rtkn, 10 [2]	Genotoxicity test, With S9 rat liver extract, Rtkn, 25 [2]	Genotoxicity test, Without S9 rat liver extract, Rtkn, 25 [2]	Genotoxicity test, With S9 rat liver extract, Bscl 2, 50 [1]	Genotoxicity test, Without S9 rat liver extract, Bscl 2, 50 [1]	Genotoxicity test, With S9 rat liver extract, Rtkn, 50 [2]	Genotoxicity test, Without S9 rat liver extract, Rtkn, 50 [2]	further results
CCCCOCC(CN1CC1C)OC(=O)NCCCCCCN1C(=O)N(CCCCCCNC(=O)OC(COCCCC)CN2CC2C)C1=O (stereo not drawn) [Ex. 13]	1.2 fold	1.1 fold	1.2 fold	1.3 fold	1.4 fold	1.1 fold	1.6 fold	1.2 fold	–	–	–	–	–
CC(CN1CC1C)OC(=O)NCC1(C)CC(NC(=O)OC(C)CN2CC2C)CC(C)(C)C1 (stereo not drawn) [Comp. Ex. 7, reference compound]	1.2 fold	1.2 fold	1.6 fold	1.6 fold	1.6 fold	1.6 fold	2.7 fold	2.5 fold	1.7 fold	2.4 fold	3.5 fold	3.8 fold	–
CC(OC(=O)NCCCCCCn1c(=O)n(CCCCCCNC(=O)OC(C)C(C)N2CC2C)c(=O)n(CCCCCCNC(=O)OC(C)C(C)N2CC2C)c1=O)C(C)N1CC1C (stereo not drawn) [Ex. 8]	–	–	–	–	1.3 fold	1.2 fold	1.5 fold	1.4 fold	–	–	1.3 fold	1.4 fold	–
CCCCCCCCCC(=O)OCC(CN1CC1C)OC(=O)NCCCCCCn1c(=O)n(CCCCCCNC(=O)OC(COC(=O)CCCCCCCCC)CN2CC2C)c(=O)n(CCCCCCNC(=O)OC(COC(=O)CCCCCCCCC)CN2CC2C)c1=O (stereo not drawn) [Ex. 24]	1.0 fold	1.1 fold	1.1 fold	1.2 fold	1.1 fold	1.1 fold	1.1 fold	1.2 fold	1.1 fold	1.0 fold	1.2 fold	1.0 fold	–
CCCCOCC(CN1CC1C)OC(=O)NCCCCCCNC(=O)OC(COCCCC)CN1CC1C (stereo not drawn) [Comp. Ex. 10, reference compound]	1.3 fold	1.3 fold	1.5 fold	1.5 fold	1.5 fold	1.2 fold	2.3 fold	1.9 fold	1.5 fold	1.6 fold	2.2 fold	1.9 fold	–
CCCCCCCCCC(=O)OCC(CN1CC1C)OC(=O)NC(C)(C)c1cccc(C(C)(C)NC(=O)OC(COC(=O)CCCCCCCCC)CN2CC2C)c1 (stereo not drawn) [Ex. 22]	1.2 fold	1.0 fold	1.2 fold	1.0 fold	1.1 fold	1.0 fold	1.1 fold	1.0 fold	1.2 fold	0.9 fold	1.0 fold	1.0 fold	–
CCCCOCC(CN1CC1(C)C)OC(=O)NCCCCCCn1c(=O)n(CCCCCCNC(=O)OC(COCCCC)CN2CC2(C)C)c(=O)n(CCCCCCNC(=O)OC(COCCCC)CN2CC2(C)C)c1=O (stereo not drawn) [Ex. 31]	–	–	–	–	–	–	–	–	–	–	–	–	Genotoxicity test, Bscl 2 induction level [1, 3]: 1.1; Genotoxicity test, Bscl 2 induction level [1, 4]: 1.1; Genotoxicity test, Bscl 2 induction level [1, 5]: 1.1; Genotoxicity test, Bscl 2 induction level [1, 6]: 1.2; Genotoxicity test, Bscl 2 induction level [1, 7]: 1.2; Genotoxicity test, Rtkn induction level [2, 3]: 1.2; Genotoxicity test, Rtkn induction level [2, 4]: 1.2; Genotoxicity test, Rtkn induction level [2, 5]: 1.3; Genotoxicity test, Rtkn induction level [2, 6]: 1.2; Genotoxicity test, Rtkn induction level [2, 7]: 1.2
CCCCC(CC)COCC(CN1CC1C)OC(=O)NCCCCCCn1c(=O)n(CCCCCCNC(=O)OC(COCC(CC)CCCC)CN2CC2C)c(=O)n(CCCCCCNC(=O)OC(COCC(CC)CCCC)CN2CC2C)c1=O (stereo not drawn) [Ex. 20]	0.9 fold	1.0 fold	0.8 fold	1.0 fold	1.0 fold	1.1 fold	1.1 fold	1.3 fold	0.7 fold	0.7 fold	1.1 fold	1.2 fold	–
CCCCOCC(CN1CC1C)OC(=O)NCCCCCC/N=c1\oc(=O)n(CCCCCCNC(=O)OC(COCCCC)CN2CC2C)c(=O)n1CCCCCCNC(=O)OC(COCCCC)CN1CC1C (stereo not drawn) [Ex. 15]	1.0 fold	1.1 fold	–	1.1 fold	1.1 fold	1.1 fold	–	1.0 fold	–	0.9 fold	–	0.9 fold	–
CCCCOCC(CN1CC1C)OC(=O)Nc1ccc(C)c(NC(=O)OC(COCCCC)CN2CC2C)c1 (stereo not drawn) [Comp. Ex. 11, reference compound]	1.3 fold	1.2 fold	1.7 fold	1.6 fold	1.2 fold	1.3 fold	2.1 fold	2.1 fold	1.6 fold	1.9 fold	2.5 fold	2.3 fold	–
CC1CN1C1CCCCC1OC(=O)NCCCCCCn1c(=O)n(CCCCCCNC(=O)OC2CCCCC2N2CC2C)c(=O)n(CCCCCCNC(=O)OC2CCCCC2N2CC2C)c1=O (stereo not drawn) [Ex. 19]	1.1 fold	1.1 fold	1.2 fold	1.3 fold	1.2 fold	1.2 fold	1.3 fold	1.3 fold	1.2 fold	–	1.3 fold	–	–
CC(CN1CC1C)OC(=O)NCCCCCCNC(=O)OC(C)CN1CC1C (stereo not drawn) [Comp. Ex. 6, reference compound]	1.4 fold	1.4 fold	2.1 fold	2.0 fold	2.2 fold	2.1 fold	3.4 fold	3.1 fold	2.3 fold	2.0 fold	2.1 fold	3.1 fold	–
CC(CN1CC1C)OC(=O)NCCCCCCn1c(=O)n(CCCCCCNC(=O)OC(C)CN2CC2C)c(=O)n(CCCCCCNC(=O)OC(C)CN2CC2C)c1=O (stereo not drawn) [Ex. 1]	–	–	–	–	1.2 fold	1.2 fold	1.1 fold	1.2 fold	–	–	0.9 fold	1.4 fold	–
